Results on eight molecules are retold here after US20260109699A1, “AZOLE DERIVATIVES AS SHP2 INHIBITORS” (IRBM S.P.A., priority 2022, published 2026).

Data set [1] can be described thus: Determination of brain penetration in SD rats. Format: in vivo. Particulars: Sprague-Dawley (SD), rat; male SD rats, IV 0.2 mg/kg, unbound brain to plasma ratio at 8 h; read-out: Kpuu, brain. The protocol:
Total brain levels, expressed as brain/plasma ratio (Kp,brain) were measured by Cbrain@8h/Cplasma@8h in SD rats after IV administration (see Pharmaceutical Research, Vol. 25, No. 8, August 2008 DOI: 10.1007/s11095-007-9502-2; Pharmaceutical Research (2022) 39:1321-1341 https://doi.org/10.1007/s11095-022-03246-6). Unbound fraction of each molecule in biological matrix was determined by in vitro plasma and brain binding assay. Kpuu, brain was calculated by the following equation: […]
In vitro plasma and brain binding assay was carried out on a RED (Rapid Equilibrium Dialysis) device. Unbound fraction (fu) of each molecule in the brain homogenate and plasma were calculated by the ratio of the buffer side response to the brain homogenate/plasma side response. An IV study design was used as the in vivo screening model to identify brain penetration of each molecule. Male naïve SD rats (n=3) were intravenously dosed with each molecule at 0.2 mg/kg in DMSO/Propylene Glycol/Water, 20:60:20 (v/v/v). At 0.083, 0.25, 0.5, 1, 2, 4, and 8 h post-dose plasma samples were collected via tail vein and brain tissue was harvested at the 8 h time point and homogenized in 3× volume of water. All samples were stored at ˜−80° C. prior to LC/MS/MS analysis. At the 8 h time point, the unbound brain to plasma ratios were generated to identify molecules with Kpuu, brain values>0.3 which is indicative of good passive brain penetration.

Data set [2] addresses T1, SHP-2 enzyme (Met1-Leu525), SHP2wt (Homo sapiens, UniProt Q06124).
T1 construct: synthetized by Origene, Met1-Leu525, cat #TP750155; purchased Origene TP750155
T1 sequence (Q06124 1-525): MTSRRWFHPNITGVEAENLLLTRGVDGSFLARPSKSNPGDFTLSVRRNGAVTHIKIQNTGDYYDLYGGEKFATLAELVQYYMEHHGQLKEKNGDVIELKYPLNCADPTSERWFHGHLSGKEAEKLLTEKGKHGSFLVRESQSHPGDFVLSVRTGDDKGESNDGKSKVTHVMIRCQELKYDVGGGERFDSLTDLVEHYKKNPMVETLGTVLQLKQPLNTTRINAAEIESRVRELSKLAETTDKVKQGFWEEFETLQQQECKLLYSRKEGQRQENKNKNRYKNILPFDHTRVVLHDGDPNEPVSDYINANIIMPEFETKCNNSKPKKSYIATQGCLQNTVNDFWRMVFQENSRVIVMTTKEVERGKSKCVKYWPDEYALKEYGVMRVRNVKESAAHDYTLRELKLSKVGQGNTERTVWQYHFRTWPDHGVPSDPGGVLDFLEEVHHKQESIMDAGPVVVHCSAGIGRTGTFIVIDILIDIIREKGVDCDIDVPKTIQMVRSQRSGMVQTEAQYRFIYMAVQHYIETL
Put plainly: SHP2 inhibition enzymatic assay. Particulars: 0.5 nM SHP-2 activated by 500 nM IRS1 peptide, 75 μM DiFMUP substrate. It is filed as biochemical. An outline of the steps: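 Human SHP2 (Met1-Leu525, 0.5 nM) activated by 500 nM bis-phosphorylated IRS1 peptide, pre-incubated 30 min with compound, then 75 μM DiFMUP for 30 min at rt in HEPES pH 7.2, NaCl/KCl, EDTA, Tween-20, 5 mM DTT. Reaction quenched with bpV, fluorescence read; IC50 by four-parameter logistic fit.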

The target of data set [3] is T2, recombinant SHP2 protein (AviTag-G4SG4S-SHP2(1-525)) (Homo sapiens, UniProt Q06124).
T2 construct: recombinant SHP2 protein (AviTag-G4SG4S-SHP2(1-525)); purchased VIVA Biotech Ltd (custom production)
T2 sequence (Q06124 1-525): T1 sequence (Q06124 1-525)
Put plainly: Binding kinetic assay by surface plasmon resonance (SPR). Particulars: for Residence time 1/koff SPR: 1/koff from SPR; for koff: Biacore T200, single cycle kinetic, 25° C, 1:1 Langmuir model. The protocol:
A N-term biotinylated recombinant SHP2 protein (AviTag-G4SG4S-SHP2(1-525)) was custom produced by VIVA Biotech Ltd. Binding kinetic rate constants were measured by SPR, using a Biacore T200 instrument. The recombinant SHP2 protein was diluted at […] in HBS-P+ buffer, then captured on a series S streptavidin sensor chip up to 5000 RU. Binding of compounds was assessed by a single cycle kinetic procedure (SCK): compounds were diluted in HBS-EP+ supplemented with 20% DMSO (from 300 to 3.7 nM, 3 fold dilution), injected for 120 s over the ligand, then dissociation rate measured for 3600 s, at […] and 25° C. Sensorgrams were analysed by Biacore T200 evaluation software: binding rate constants (kon, koff) and affinity (KD) were calculated by curve filling according to a 1:1 Langmuir model. Each molecule was tested in triplicate on separate flow channels.
For orientation: SPR reads the build-up and loss of mass on a sensor chip optically.

Data set [4] concerns phospho-ERK1/2 (Thr202/Tyr204). Put plainly: Phospho-ERK cellular assay. Format: cell-based. Particulars: Homo sapiens; KYSE-520 cells, 2 h at 37° C, TR-FRET; read-out: pERK IC50. In outline:
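KYSE-520 cells treated overnight-after-plating with serially diluted compounds for 2 h at 37° C, then lysed. Phospho-ERK1/2 measured by TR-FRET after overnight antibody incubation at rt; inhibition normalized between DMSO (0%) and no-cell (100%) wells, IC50 from four-parameter logistic fit.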
A general note: In TR-FRET formats the signal depends on donor and acceptor labels being close together.

A value given as a limit tells only on which side of the number the result lay.

For the molecule `N[C@@H]1c2ccnn2CC12CCN(c1cnc(Sc3cccc(-n4cccn4)c3Cl)cn1)CC2` [Example 10, (S)-1-(5-((2-chloro-3-(1H-pyrazol-1-yl)phenyl)thio)pyrazin-2-yl)-4′H,6′H-spiro[piperidine-4,5′-pyrrolo[1,2-b]pyrazol]-4′-amine], in data set [1], the Kp uu at 8 h was more than 0.3. The IC50 (as a rule, the concentration needed to halve the response being measured) in data set [2] is not above 50 nM. In addition, in data set [3], the “Residence time 1/koff SPR” value is 90909 s and the koff (commonly a measure of how fast the partners let go of each other) was found to be 1.1e-05 s⁻¹. The half-inhibitory concentration (IC50) in data set [4] was less than 100 nM.

`N[C@@H]1c2ccnn2CC12CCN(c1cnc(Sc3ccnc4ccccc34)cn1)CC2` [Example 39, (S)-1-(5-(quinolin-4-ylthio)pyrazin-2-yl)-4′H,6′H-spiro[piperidine-4,5′-pyrrolo[1,2-b]pyrazol]-4′-amine]: in data set [1], the Kp uu at 8 h was more than 0.3. The IC50 is not above 50 nM in data set [2] and less than 100 nM in data set [4]. Besides, in data set [3], the “Residence time 1/koff SPR” value was found to be 5474 s. Further, the koff in data set [3] is 0.000183 s⁻¹.

For `N[C@@H]1c2ccnn2CC12CCN(c1cnc(Oc3cccc(Cl)c3Cl)cn1)CC2` [Example 2, (S)-1-(5-(2,3-dichlorophenoxy)pyrazin-2-yl)-4′H,6′H-spiro[piperidine-4,5′-pyrrolo[1,2-b]pyrazol]-4′-amine], the Kp uu at 8 h in data set [1] was more than 0.3. The IC50 in data set [2] is not above 50 nM. Further, in data set [3], the “Residence time 1/koff SPR” value is reported as 1944 s and the koff came out at 0.000514 s⁻¹. The half-maximal inhibitory concentration (IC50) in data set [4] was in the range of 100 to 500 nM.

On to `Cc1cccc(Sc2cnc(N3CCC4(CC3)Cn3nccc3[C@H]4N)cn2)c1F` [Example 36, (S)-1-(5-((2-fluoro-3-methylphenyl)thio)pyrazin-2-yl)-4′H,6′H-spiro[piperidine-4,5′-pyrrolo[1,2-b]pyrazol]-4′-amine], for which the Kp uu at 8 h in data set [1] is less than 0.3. The figures for the IC50 in data set [2] and in data set [4] were not above 50 nM and less than 100 nM, respectively. The “Residence time 1/koff SPR” value in data set [3] stood at 53571 s. Moreover, in data set [3], the koff was found to be 1.87e-05 s⁻¹.

On to `N[C@@H]1c2ccnn2CC12CCN(c1cnc(Sc3ccccc3F)cn1)CC2` [Example 21, (S)-1-(5-((2-fluorophenyl)thio)pyrazin-2-yl)-4′H,6′H-spiro[piperidine-4,5′-pyrrolo[1,2-b]pyrazol]-4′-amine], for which the Kp uu at 8 h in data set [1] was more than 0.3. Further, the IC50 in data set [2] is not above 50 nM; in data set [4] it was less than 100 nM. The “Residence time 1/koff SPR” value in data set [3] came out at 11001 s. Also, in data set [3], the koff was 9.09e-05 s⁻¹.

`Cc1c(N2CCC3(CC2)Cn2nccc2[C@H]3N)nc(C)n(-c2cccc(Cl)c2Cl)c1=O` (single isomer, unassigned) [Example 3]: in data set [1], the Kp uu at 8 h was more than 0.3. In data set [2], this molecule displayed an IC50 not above 50 nM. Further, in data set [3], the “Residence time 1/koff SPR” value turned out to be 8065 s and the koff turned out to be 0.000124 s⁻¹. The IC50 in data set [4] is less than 100 nM.

With `Cc1c(F)ccc(Sc2cnc(N3CCC4(CC3)Cn3nccc3[C@H]4N)cn2)c1F` [Example 45, (S)-1-(5-((2,4-difluoro-3-methylphenyl)thio)pyrazin-2-yl)-4′H,6′H-spiro[piperidine-4,5′-pyrrolo[1,2-b]pyrazol]-4′-amine], the IC50 in data set [2] was not above 50 nM; in data set [4] it was less than 100 nM. Also, in data set [3], the “Residence time 1/koff SPR” value stood at 12664 s. The koff in data set [3] stood at 7.9e-05 s⁻¹.

With `N[C@@H]1c2ccnn2CC12CCN(c1cnc(Sc3cccc(-n4ccnc4)c3Cl)cn1)CC2` [Example 44, (S)-1-(5-((2-chloro-3-(1H-imidazol-1-yl)phenyl)thio)pyrazin-2-yl)-4′H,6′H-spiro[piperidine-4,5′-pyrrolo[1,2-b]pyrazol]-4′-amine], the Kp uu at 8 h in data set [1] was more than 0.3. Further, the half-maximal inhibitory concentration (IC50) in data set [2] is not above 50 nM; in data set [4], less than 100 nM. Further, the “Residence time 1/koff SPR” value in data set [3] is reported as 3417 s. The koff in data set [3] was 0.000293 s⁻¹.
